Reference: paper PMC4700278, “Molecular and Biochemical Analysis of the Estrogenic and Proliferative Properties of Vitamin E Compounds” (Frontiers in Oncology, 2016)

Assays:
MDA-MB-231 (ER(−)) cells = experiment: Cell proliferation assay (sulforhodamine B); format: cell-based, human; conditions: 500 μM δ-TP or δ-TT; 30 μM lovastatin; 6-day period
Experimental: MCF-7 (ER(+)), T47D (ER(+)), and MDA-MB-231 (ER(−)) cell lines were from ATCC. Cell lines were maintained at 37°C in a humidified incubator in a 5% CO2-enriched atmosphere in T-75 flasks. MCF-7, T47D, and MDA-MB-231 cells were grown routinely in phenol red RPMI 1640 medium supplemented with 5% FBS (Gibco BRL, Life Technologies, Cergy Pontoise, France) and with penicillin–streptomycin. Cells were grown for 24 h before treatment in phenol red-free medium containing 5% DCC-FCS. Cells were seeded into 96-well plates at 2000 cells/well. Treatment media (150 μl/well) was added on the following day and replaced at 48-h intervals until the end of the experiment. Cell density was measured via the sulforhodamine B method ([43]) after 0, 2, 4, 6, and 8 days. The absorbance of SRB was measured directly at 490 nm in the 96-well plates using a multiskan® multisoft reader from Labsystem.
Figure 4 Effect of tocol on ER(+) and ER(−) BC cell proliferation and HMG-CoA reductase activity. (A) Effect of δ-tocols on estrogen and non-estrogen-regulated growth of MCF-7, T47D, and MDA-MB-231 cells. […] Cells were also treated with 30 μM lovastatin (Lova) in the presence or absence of 5 mM M, as described in Section “Materials and Methods.” Values are shown as means and vertical bars represent SEM. The data were analyzed by two-way ANOVA, followed by Bonferroni post hoc test. ***P < 0.001, **P < 0.01, and *P < 0.05 in comparison with control or bare-linked specific control. Ns: not significant. (B) Effect of δ-TT on hydroxymethylglutaryl coenzyme A reductase (HMGR) activity in MCF-7, T47D, and MDA-MB-231 cells. […] Data shown are the mean values ± SEM from three independent experiments performed in triplicate.

T47D (ER(+)) cells = experiment: Cell proliferation assay (sulforhodamine B); format: cell-based, human; conditions: 500 μM δ-TP or δ-TT; 30 μM lovastatin; 6-day period
Experimental: MCF-7 (ER(+)), T47D (ER(+)), and MDA-MB-231 (ER(−)) cell lines were from ATCC. Cell lines were maintained at 37°C in a humidified incubator in a 5% CO2-enriched atmosphere in T-75 flasks. […] Cells were grown for 24 h before treatment in phenol red-free medium containing 5% DCC-FCS. Cells were seeded into 96-well plates at 2000 cells/well. Treatment media (150 μl/well) was added on the following day and replaced at 48-h intervals until the end of the experiment. Cell density was measured via the sulforhodamine B method ([43]) after 0, 2, 4, 6, and 8 days. The absorbance of SRB was measured directly at 490 nm in the 96-well plates using a multiskan® multisoft reader from Labsystem.

ERα [1] = molecular target: T1, ERα (Homo sapiens, UniProt P03372); experiment: ERE-luciferase reporter assay in HELN-ERα cells; format: cell-based; set-up: endogenous in cells; host or cells: MCF-7; conditions: 500 μM
T1 sequence (P03372 1-595): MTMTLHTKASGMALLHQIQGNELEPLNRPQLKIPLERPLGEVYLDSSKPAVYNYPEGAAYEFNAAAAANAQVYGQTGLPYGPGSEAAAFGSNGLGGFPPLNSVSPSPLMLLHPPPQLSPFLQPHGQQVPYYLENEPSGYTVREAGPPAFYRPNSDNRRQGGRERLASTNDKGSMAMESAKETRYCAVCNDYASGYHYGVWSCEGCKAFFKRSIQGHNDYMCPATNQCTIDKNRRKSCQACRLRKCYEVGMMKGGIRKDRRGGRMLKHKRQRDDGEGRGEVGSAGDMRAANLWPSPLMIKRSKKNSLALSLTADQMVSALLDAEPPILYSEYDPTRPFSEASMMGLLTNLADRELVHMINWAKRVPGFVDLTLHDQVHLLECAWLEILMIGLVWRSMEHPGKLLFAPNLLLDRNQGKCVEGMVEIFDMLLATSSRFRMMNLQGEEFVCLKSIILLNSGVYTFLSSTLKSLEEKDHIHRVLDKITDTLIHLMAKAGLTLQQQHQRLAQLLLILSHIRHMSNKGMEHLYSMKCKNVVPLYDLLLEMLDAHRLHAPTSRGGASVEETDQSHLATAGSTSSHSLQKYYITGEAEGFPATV
Excerpt: MELN cells were established by transfecting ER(+) MCF-7 cells with the ERE-β-globin-tk-Luc-SV-Neo plasmid ([36]). HELN cells were generated by transfection of ER(−) HeLa cells with this plasmid. The HELN-ERα, HELN-ERβ, HELN-ΔAB-ERα, and HELN-ΔAB-ERβ cell lines then underwent a second transfection with the corresponding pSG5-puro plasmids (pSG5-ERα-puro, pSG5-ERβ-puro, pSG5-ΔAB-ERα-puro, and pSG5-ΔAB-ERβ-puro, respectively) and expressed wild-type or mutated ERα or ERβ ([39], [40]). […] Luciferase activity was measured using the luciferase assay reagent (Promega), according to the manufacturer’s instructions. Protein concentrations were measured using the Bradford technique ([41]) to normalize the luciferase activity data. For each condition, average luciferase activity was calculated from the data of three independent wells.
Figure 3 Measurement of estrogenicity of tocols in vitro. […] MCF-7 extracts were analyzed for the presence of ERα by western blotting using GAPDH as a control. […] The ratio of ERα to GAPDH levels in each experiment was determined densitometrically and normalized to control value (taken to be 1). […] The relative expression of TGFα, PR, and Ps2 (TFF1) after 16 h was analyzed by quantitative RT-PCR. […]

ERα [2] = molecular target: T1, ERα; experiment: Estrogen receptor-binding assay, competition with [3H]-17β-estradiol; set-up: expressed in transfected cells; host or cells: Cos-7; conditions: extracts of cos-7 cells expressing human ERα; 2 nM [3H]-E2; tocols 1 μM to 1 mM; N.M. = not measurable
ERα [3] = molecular target: T1, ERα; conditions: MCF-7 cells; 500 μM δ-TP or δ-TT, 100 nM E2; 3 h; western blot, GAPDH control
Experimental: Figure 3 Measurement of estrogenicity of tocols in vitro. (A) Dose–response curve of the effect of tocols on MCF-7 cells stably transfected with the ERE-β-globin-tk-Luc plasmid (MELN cells). […] Data shown are the mean values ± SEM from three independent experiments. […] MCF-7 extracts were analyzed for the presence of ERα by western blotting using GAPDH as a control. […] The western blot shown is representative of three independent experiments. The ratio of ERα to GAPDH levels in each experiment was determined densitometrically and normalized to control value (taken to be 1). (D) Effect of δ-tocols on estrogen response element-dependent luciferase activity in HELN cells, which are HELA cells transfected with either fully functional ERα or ERβ or their mutated versions containing a deletion the AB domain (ΔAB). […] Data shown are the mean values ± SEM from three independent experiments. […] Cells were treated with 500 μM δ-tocols in the presence or in the absence of ICI. The relative expression of TGFα, PR, and Ps2 (TFF1) after 16 h was analyzed by quantitative RT-PCR. Data shown are the mean values ± SEM from three independent experiments.

| Compound | effect on MDA-MB-231 cell proliferation (MDA-MB-231 (ER(−)) cells) | effect on T47D cell proliferation (T47D (ER(+)) cells) | ER-dependent luciferase activity through ERα (ERα [1]) | IC50 (ERα [2]) [µM] | degradation of ERα protein (ERα [3]) |
| --- | --- | --- | --- | --- | --- |
| CC(C)=CCC/C(C)=C/CC/C(C)=C/CC[C@]1(C)CCc2cc(O)cc(C)c2O1 [δ-TT, δ-tocotrienol] | inhibited the proliferation | inhibited the proliferation | activate ER-dependent luciferase activity | 96 ± 6 | not degraded |
| Cc1cc(O)cc2c1OC(C)(CCCC(C)CCCC(C)CCCC(C)C)CC2 (stereo not shown) [δ-TP, δ-tocopherol] | no impact | significant stimulation | activate ER-dependent luciferase activity | 118 ± 15 | not degraded |
